{"source": "paper PMC9186351", "about": "“Discovery of N-quinazolinone-4-hydroxy-2-quinolone-3-carboxamides as DNA gyrase B-targeted antibacterial agents” (Journal of Enzyme Inhibition and Medicinal Chemistry, 2022)", "key": {"[1]": {"system": "vancomycin intermediate resistant S. aureus (VISA)", "assay": "MIC by broth microdilution, VISA strains", "format": "cell-based", "experimental": "(§1) All of the bacterial strains used in this study were obtained from the Collection Centre of Pathogen Microorganism of Chinese Academy of Medical Sciences (CAMS-CCPM-A) in China. All of the isolates were stored at −80 °C and streaked on tryptic soy agar (TSA) plates to obtain overnight cultures. The MICs of the test compounds were determined by the broth microdilution method in accordance with the Clinical and Laboratory Standards Institute (CLSI) guidelines.[20] Cation-adjusted Mueller-Hinton broth (CAMHB) was used as the growth medium for MIC assays. Briefly, 100 μL of serially diluted compounds (starting concentrations were 64 μg/mL) in CAMH broth were added to the wells of 96-well microtiter plates. Then, 10 µL of 5 × 10^6 CFU/mL bacterial culture was added to each well. […] The MIC was defined as the lowest concentration of a compound that inhibited visual growth of the bacteria. Vancomycin was set as the positive control for this assay."}, "[2]": {"system": "methicillin-resistant S. aureus (MRSA)", "assay": "MIC by broth microdilution, MRSA strains", "format": "cell-based", "settings": "Staphylococcus aureus", "experimental": "as §1"}, "[3]": {"system": "MRSA/VISA strains", "assay": "MIC by broth microdilution, MRSA and VISA panel", "format": "cell-based, S. aureus", "settings": "Staphylococcus aureus, ATCC 33591 / ATCC 43300 / ATCC 700699 / MRSA / VISA, read-out: MICs for MRSA and VISA strains", "experimental": "as §1"}, "[4]": {"system": "methicillin-sensitive S. aureus (MSSA)", "assay": "MIC by broth microdilution, MSSA isolates", "format": "cell-based", "settings": "Staphylococcus aureus", "experimental": "as §1"}, "[5]": {"assay": "Cytotoxicity, SRB assay, HepG2", "format": "cell-based, human", "settings": "human, HepG2 cells, read-out: CC50 for HepG2 cells (positive control)", "experimental": "(§2) Cytotoxicity in terms of CC50 was determined by the SRB assay according to the protocol described in our previous publication.[16] Briefly, human HUVECs or HepG2 cells were seeded in the wells of 96-well plates at a concentration of 1 × 10^5 cells per well and incubated at 37 °C for 24 h. […] The cells were fixed with 10% trichloroacetic acid (w/v) at 4 °C for 1 h, washed five times with distilled water, and stained with 0.4% SRB solution at room temperature for another 20 min. The cells were then washed five times with 1% acetic acid and air-dried. The protein-bound dye was dissolved in 10 mM Tris-base solution and shaken for 5 min. The optical density (OD) was measured at 540 nm using a microplate reader to estimate the cell viability (%). With the viability values (%) of the cells treated by the compound at different concentrations as input, the CC50 value was determined by the non-linear regression with normalised dose-response fit implemented in GraphPad Prism version 5 software (GraphPad Software Inc., La Jolla, CA). The experiment was performed in duplicate, and paclitaxel was used as the positive drug for this assay."}, "[6]": {"assay": "Cytotoxicity, SRB assay, HUVEC", "format": "cell-based, human", "settings": "human, HUVEC cells, read-out: CC50 for HUVECs (positive control)", "experimental": "as §2"}, "[7]": {"assay": "in vitro", "format": "in vitro ADME, mouse", "settings": "mouse plasma, 37 °C; read-out: In vitro metabolic stability t1/2 (min) in plasma", "experimental": "The mouse plasma was purchased from Charles River and stored at −20 °C. The stock solution of the test compound dissolved in DMSO (50 mM) was prepared and diluted to obtain a working solution at the concentration of 0.2 mM. The working solution of the control compound, i.e. propantheline, was similarly prepared (0.2 mM). Terfenadine (5 ng/mL) and tolbutamide (10 ng/mL) dissolved in acetonitrile were used as two quenching solutions.\nThe mouse plasma was pre-warmed at 37 °C for 15 min. The working solution of the test/control compound (2 µL) was then added to the mouse plasma (398 µL) in a 96-well plate. Next, 30 µL of the reaction mixture was sampled and moved to 300 µL of quenching solutions at each time point: 0, 5, 15, 30, 60, and 120 min for the control compound and 0, 15, 30, 60, and 120 min for the test compound. When the sampling was done, each sample was centrifuged at 4000 rpm at 4 °C for 15 min. Then, 100 µL of the supernatant was removed and mixed with 100 µL of distilled water for LC-MS/MS analysis with Shimadzu HPLC system and the AB Sciex API 4000 QTRAP instrument. The remaining compound (%) after incubation in plasma versus the incubation time was plotted. The half-life (t1/2) value of the compound was determined via linear regression from the plot."}, "[8]": {"assay": "Mouse microsomal stability assay", "format": "in vitro ADME", "settings": "pH 7.4; mouse liver microsomes, NADPH; read-out: In vitro metabolic stability t1/2 (min) in liver microsomes", "experimental": "The mouse liver microsomes were purchased from BioreclamationIVT and stored at −80 °C. The working solutions (0.2 mM) of the control compound, i.e. dextromethorphan, and the test compound dissolved in DMSO were prepared. Terfenadine (5 ng/mL) and tolbutamide (10 ng/mL) dissolved in acetonitrile were used as two quenching solutions. NADPH was dissolved in the phosphate buffer (50 mM K2HPO4, pH 7.4) at 5 mM. The mouse liver microsomes were thawed at 37 °C. The concentration of the stock solution was 20 mg/mL. The working solution (0.629 mg/mL) was prepared by dilution in phosphate buffer.\nThe working solution of the control/test compound (1.5 µL) was mixed with the liver microsome working solution (238.5 µL) in a 96-well plate and pre-incubated at 37 °C for 5 min. The 5 mM NADPH working solution (60 µL) was added to the solution to initiate the metabolic reaction. At each time point (0, 5, 15, 30, and 60 for the control/test compound), 30 µL of the reaction mixture was sampled and moved to 300 µL of quenching solutions. When the sampling was done, each sample was centrifuged at 4000 rpm at 4 °C for 15 min. The supernatant was analysed with the same HPLC system as the plasma stability assay. The residues (%) of the test/control compound along with the incubation time were calculated based on which the half-life (t1/2) value was determined."}, "[9]": {"target": "S. aureus DNA gyrase", "settings": "Figure 1; cited from earlier work"}}, "note": "Read-outs that look alike come from different tables or passages of the source."}
{"smiles": "CN[C@H](CC(C)C)C(=O)N[C@H]1C(=O)N[C@@H](CC(N)=O)C(=O)N[C@H]2C(=O)N[C@H]3C(=O)N[C@H](C(=O)N[C@H](C(=O)O)c4cc(O)cc(O)c4-c4cc3ccc4O)[C@H](O)c3ccc(c(Cl)c3)Oc3cc2cc(c3O[C@@H]2O[C@H](CO)[C@@H](O)[C@H](O)[C@H]2O[C@H]2C[C@](C)(N)[C@H](O)[C@H](C)O2)Oc2ccc(cc2Cl)[C@H]1O", "note": "[Vancomycin, reference compound]", "values": [{"measurement": "MIC", "setting": "[1]; Staphylococcus aureus, ATCC 700699 / VISA", "result": 4, "unit": "mg/L"}, {"measurement": "MIC", "setting": "[1]; Staphylococcus aureus, VISA", "result": 4, "unit": "mg/L"}, {"measurement": "MIC", "setting": "[1]; VISA HIP 5827", "result": 4.0, "unit": "mg/L"}, {"measurement": "MIC", "setting": "[2]; ATCC 33591 / MRSA", "result": 2, "unit": "mg/L"}, {"measurement": "MIC", "setting": "[2]; ATCC 43300 / MRSA", "result": 1, "unit": "mg/L"}, {"measurement": "MIC", "setting": "[2]; MRSA", "result": 0.5, "unit": "mg/L"}, {"measurement": "MIC", "setting": "[3]", "result": "0.5 to 4", "unit": "mg/L"}, {"measurement": "MIC", "setting": "[4]; ATCC 29213 / BAA-1708 / BAA-976 / MSSA, read-out: MIC over the five MSSA isolates, ATCC 29213, 15, 18-3, BAA976, BAA1708, span over isolates", "result": "0.5 to 1", "unit": "mg/L"}, {"measurement": "MIC", "setting": "[4]; ATCC 29213 / MSSA, MSSA ATCC 29213", "result": 1, "unit": "mg/L"}, {"measurement": "MIC", "setting": "[4]; BAA-976 / MSSA, MSSA BAA976", "result": 0.5, "unit": "mg/L"}, {"measurement": "MIC", "setting": "[4]; BAA-1708 / MSSA, MSSA BAA1708", "result": 1, "unit": "mg/L"}, {"measurement": "MIC", "setting": "[4]; MSSA, MSSA 15", "result": 1, "unit": "mg/L"}, {"measurement": "MIC", "setting": "[4]; MSSA, MSSA 18-3", "result": 0.5, "unit": "mg/L"}]}
{"smiles": "CC(=O)O[C@H]1C(=O)[C@@]2(C)[C@H]([C@H](OC(=O)c3ccccc3)[C@]3(O)C[C@H](OC(=O)[C@H](O)[C@@H](NC(=O)c4ccccc4)c4ccccc4)C(C)=C1C3(C)C)[C@]1(OC(C)=O)CO[C@@H]1C[C@@H]2O", "note": "[Paclitaxel, reference compound]", "values": [{"measurement": "CC50 at 72 h", "setting": "[5]", "result": 12.7, "unit": "nM"}, {"measurement": "CC50 at 72 h", "setting": "[6]", "result": 1.7, "unit": "nM"}]}
{"smiles": "CC(C)[N+](C)(CCOC(=O)C1c2ccccc2Oc2ccccc21)C(C)C", "note": "[propantheline, reference compound]", "values": [{"measurement": "half-life at 1 µM", "setting": "[7]", "result": 66.3, "unit": "min"}]}
{"smiles": "COc1ccc2c(c1)[C@]13CCCC[C@@H]1[C@H](C2)N(C)CC3", "note": "[dextromethorphan, reference compound]", "values": [{"measurement": "half-life at 1 µM", "setting": "[8]", "result": 16, "unit": "min"}]}
{"smiles": "CCc1[nH]c(C(=O)NC2CCN(c3nnc(C(C)(C)O)s3)CC2OC)nc1Cl", "note": "(stereo not drawn) [DS-2969b]", "values": [{"measurement": "S. aureus DNA gyrase IC50", "setting": "[9]", "result": 0.14, "unit": "mg/L"}]}
